From patent publication US20220054432A1, “COMPOSITION FOR INCREASING RETENTION OF CAROTENOID IN BLOOD” (ENEOS Corporation, priority 2018, published 2022)

What was measured:
[1] = Proportion of trans carotenoid in serum and each organ of mice (Test Example 2); format: in vivo, ICR strain mice; details: mice of Test Example 1, 50 mg/kg orally once daily for 10 days
Procedure: In HPLC, the concentration of adonixanthin was measured as a concentration of each of the cis isomer and the trans isomer. In HPLC, the concentration of astaxanthin was measured as a concentration of each of the cis isomer and the trans isomer. Regarding each of adonixanthin and astaxanthin in serum and each organ of mice of Test Example 1, the proportion of the trans isomer was confirmed.

[2] = Retention in blood: carotenoid concentration in serum of cynomolgus monkeys (Test Example 3); format: in vivo; details: cynomolgus monkey, 50 mg/kg intragastric once daily for 10 days, serum 4 hours after last administration
Procedure: As experimental animals, cynomolgus monkeys were used. Two cynomolgus monkeys were used, and an adonixanthin dosing solution was administered to one monkey (adonixanthin-administering monkey), while an astaxanthin dosing solution was administered to the other monkey (astaxanthin-administering monkey). As the dosing solutions, the dosing solutions obtained in Preparation Example 2 were used, and the dosing solutions at a dose such that the dose of adonixanthin or astaxanthin was 50 mg/kg body weight were administered once daily for 10 days (the day of initiation of administration of the dosing solutions was defined as day 1). […] The dose in each administration was calculated based on the latest body weight at each administration time point (the body weight was measured on the day of initiation of acclimation, the day of end of acclimation, the day of initiation of administration, and before administration on day 8 of administration using an electric balance (HP-40K or GP-40K, both of which are manufactured by A&D Company, Limited)). […] Regarding each serum 4 hours after the last administration of the dosing solutions, each of the concentration of adonixanthin in serum collected from the adonixanthin-administering monkey and the concentration of astaxanthin in serum collected from the astaxanthin-administering monkey was measured. […]

[3] = Retention in blood: carotenoid concentration in serum of mice (Test Example 1); format: in vivo, ICR strain mice; details: 50 mg/kg body weight orally once daily for 10 days, blood 4 hours after last administration
Source text: Adonixanthin was used as an asymmetric carotenoid, and astaxanthin was used as a symmetric carotenoid. As experimental animals, ICR strain mice were used. Fourteen (14) mice were used, and 4 mice each were assigned to the adonixanthin-administration group and the astaxanthin-administration group, and 6 mice were assigned to the control administration group. In grouping, each group was constituted so that the mean body weight in each group was as uniform as possible based on the body weight on the day before initiation of administration. For each experimental group, blood was collected before initiation of administration of dosing substances. […] Each of the concentration of adonixanthin in serum of blood collected from the adonixanthin-administration group (concentration relative to 1 mL of serum) and the concentration of astaxanthin in serum of blood collected from the astaxanthin-administration group (concentration relative to 1 mL of serum) was measured. […] In HPLC, the concentration of adonixanthin was measured as a concentration of each of the cis isomer and the trans isomer. In HPLC, the concentration of astaxanthin was measured as a concentration of each of the cis isomer and the trans isomer. […] From serum collected from the control administration group, neither adonixanthin nor astaxanthin were detected.

Row | Compound | Proportion of the trans isomer in each organ versus the cis isomer, FIG. 2 [1] | Concentration in serum, FIG. 3 [2] | Concentration in serum (total of cis isomer and trans isomer), FIG. 1 [3]
1 | CC1=C(/C=C/C(C)=C/C=C/C(C)=C/C=C/C=C(C)/C=C/C=C(C)/C=C/C2=C(C)C(=O)C(O)CC2(C)C)C(C)(C)CC(O)C1 (stereo not drawn) [adonixanthin, 3,3′-dihydroxy-β,β-caroten-4-one] | especially higher than the proportion of the cis isomer | especially likely to be retained in blood | especially likely to be retained in blood
2 | CC1=C(/C=C/C(C)=C/C=C/C(C)=C/C=C/C=C(C)/C=C/C=C(C)/C=C/C2=C(C)C(=O)C(O)CC2(C)C)C(C)(C)CC(O)C1=O (stereo not drawn) [astaxanthin, 3,3′-dihydroxy-β,β-carotene-4,4′-dione] | higher than the proportion of the cis isomer | exist in serum at a high concentration | exist in serum at a high concentration
